Several values for one entry are separate records, joined by “and”; a condition that tells them apart may be missing. Equal entries are not always repeated.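 Following 48 hours of exposure in 96-well plates, responses at five concentrations were used to interpolate endpoints linearly. Abbreviation: GI50, concentration required for 50% inhibition of growth. The concentration for full growth arrest is given as TGI.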 Residues, ends and D or L forms follow the SMILES beside them. *: point of attachment. Cbz = O=C(OCc1ccccc1)*
Tested on: MDA-MB-468 breast
Test: DTP human tumour cell line panel, 48 h

CCCCCCCCCCCCCCCCN(CC)CC
GI50: 2210 nM | TGI: 4550 nM

CC(=O)N[C@@H](Cc1ccc(OP(=O)(O)O)cc1)C(=O)N[C@H]1CCC(=O)N2CCC[C@@H](C(=O)NCc3ccccc3)N2C1=O
GI50: > 25000 nM | TGI: > 25000 nM

Cc1ccccc1C(C(=O)NC1CCCCC1)N(C(=O)CNc1ncccc1F)c1cccc(F)c1 (centres undefined)
GI50: > 65600 nM | TGI: > 100000 nM

COc1ccc(-c2[nH]nc(N)c2-c2cc(OC)c(OC)c(OC)c2)cc1
GI50: 36.8 nM | TGI: 6230 nM

O=C1c2c(Cl)c(Cl)c(Cl)c(Cl)c2C(=O)C2(Cl)CC=CCC12Cl (centres undefined)
GI50: 1210 nM | TGI: 2880 nM

COC(=O)CNc1nc(N(C)O)nc(N(C)O)n1
GI50: 2160 nM | TGI: 17400 nM

C[C@H]1CCC/C=C/[C@@H]2C[C@H](O)C[C@H]2[C@H](O)/C=C/C(=O)O1
GI50: 31.2 nM | TGI: 268 nM

COc1cc(C2CC(=O)Nc3c2c(C)nn3-c2nc3ccccc3[nH]2)cc(OC)c1O (centres undefined)
GI50: 2370 nM | TGI: 7090 nM

C=CC(=O)Nc1cccc(Oc2nc(Nc3ccc(N4CCN(C)CC4)cc3OC)ncc2Cl)c1
GI50: 113 nM | TGI: 518 nM

Cc1cccc(Cl)c1NC(=O)c1cnc(Nc2cc(N3CCOCC3)cc(S(C)(=O)=O)c2)s1
GI50: 1470 nM | TGI: 8030 nM

C=C1C(=O)O[C@H]2[C@H]1CC/C(CNC(=O)/C=C/c1ccccc1F)=C\CC[C@@]1(C)O[C@@H]21
GI50: 493 nM | TGI: 1960 nM

COc1ccc2c(c1)C(c1cc(OC)c3c(c1)OCO3)C1=C(COC1=O)N2 (centres undefined)
GI50: 205 nM | TGI: 849 nM

CN(C)Cc1c(C(=O)NCCOc2ccc(C(=O)NO)cc2)oc2ccccc12
GI50: 152 nM | TGI: 2360 nM

COc1cc2nc3cc([N+](=O)[O-])ccc3c(NCCNCC(C)O)c2cc1OC (centres undefined)
GI50: 203 nM | TGI: 542 nM

Cc1sc2c(c1C)C(c1ccc(Cl)cc1)=N[C@@H](CC(=O)NCCCN1CCN(C)CC1)c1nnc(C)n1-2
GI50: 197 nM | TGI: > 100000 nM

O=C1CC(N2C(=O)/C(=C/C(Cl)=C\c3ccc([N+](=O)[O-])cc3)SC2=S)C(=O)N1c1ccc(O)cc1 (centres undefined)
GI50: 1870 nM | TGI: 5700 nM

CCCN(CCC)c1ccc(C=O)c(C)c1
GI50: 1980 nM | TGI: 32500 nM

Cc1ccc(OCCOCCOCCOCCOCCOc2ccc(C)n(O)c2=S)c(=S)n1O
GI50: 36.8 nM | TGI: 412 nM

C=CC(=O)N1CC[C@H](n2nc(C#Cc3cc(OC)cc(OC)c3)c3c(N)ncnc32)C1
GI50: 3330 nM | TGI: 78500 nM

COc1ccc(Cn2cc3c(c2-c2cc(OC)c(OC)c(OC)c2)CCc2c(CO)noc2-3)cc1
GI50: 307 nM | TGI: 18900 nM

NC(=O)n1c(=O)n(-c2cccc(C(F)(F)F)c2)c(=O)c2cc(-c3ccc(F)cc3F)ccc21
GI50: 1840 nM | TGI: 5830 nM

Nc1ncn([C@H]2C[C@H](OP(=O)(O)OC[C@H]3O[C@@H](n4cnc5c(=O)[nH]c(N)nc54)C[C@@H]3O)[C@@H](CO)O2)c(=O)n1
GI50: 154 nM | TGI: 67900 nM

CN1CCN(Cc2ccc(NC(=O)c3cncc(C#Cc4cnc5ccc(OC6CCOCC6)nn45)c3)cc2C(F)(F)F)CC1
GI50: 105 nM | TGI: 278 nM

Oc1ccccc1/C=N\NC(=S)N/N=C/c1ccccc1O
GI50: 2240 nM | TGI: 30500 nM

O=C(O)c1cn(C2CC2)c2cc(N3CCN(Cc4c(O)ccc5ccccc45)CC3)c(F)cc2c1=O
GI50: 15200 nM | TGI: > 100000 nM

C=CCOC(=O)Nc1cccn([C@H](CC(C)C)C(=O)NCCC(C)C)c1=O
GI50: 42400 nM | TGI: > 100000 nM

CC(C)C[C@@H](C=O)NC(=O)[C@H](CC(C)C)NC(=O)[C@H](CC(C)C)NC(=O)OCc1ccccc1 (Cbz-Leu-Leu-Leu-aldehyde)
GI50: 249 nM | TGI: 663 nM

O=[N+]([O-])c1ccc2c(c1)C(c1ccccc1Cl)=Nc1c(n[nH]c1-c1cccnc1)N2
GI50: > 25000 nM | TGI: > 25000 nM

CC1Cc2ccccc2N1C(=O)Cc1nc(N2CCOCC2)cc(=O)[nH]1 (centres undefined)
GI50: 2060 nM and 5780 nM | TGI: 17100 nM and 47500 nM

NCCSC(c1ccccc1)(c1ccccc1)c1ccccc1
GI50: 357 nM | TGI: 1630 nM

Cc1[nH]c(C(=O)Nc2ccccc2OCc2cccc(C(=O)NC3CCNC3)c2)c(Cl)c1Cl (centres undefined)
GI50: 1890 nM | TGI: 3600 nM

NC(=O)c1cc(Br)ccc1NC(=O)/C=C/c1ccccc1
GI50: 837 nM | TGI: 4320 nM

CN(C)CCOc1ccccc1NC1=C(Cl)C(=O)C(Nc2ccccc2OCCN(C)C)=C(Cl)C1=O
GI50: 579 nM | TGI: 1170 nM

CN(C)C=Nc1c(I)cc(I)c(CCC(=O)O)c1I
GI50: > 100000 nM | TGI: > 100000 nM

NC(N)=Nc1ccc(/C=C2\C=Cc3ccccc32)cc1
GI50: 148 nM | TGI: 969 nM

O=C1NC(=NCCc2ccccn2)S/C1=C\c1ccc2ncccc2c1
GI50: 5770 nM | TGI: > 25000 nM

CC(C)Cc1ccc(C(C)C(=O)NCc2ccc(Cn3c(=O)sn(CCCI)c3=O)cc2)cc1 (centres undefined)
GI50: 423 nM | TGI: 1620 nM

Cc1ccsc1-c1ccc2c(c1)COC2(CCCN(C)C)c1ccc(F)cc1 (centres undefined)
GI50: 1580 nM | TGI: 3060 nM

CC/C=C\C[C@H](O)C/C=C1/C(=O)C=C[C@@H]1C/C=C\CCCCO
GI50: 1970 nM | TGI: 4650 nM

N#CC1=C(N)Oc2c(sc3c(Br)cccc23)C1c1ccc(Cl)cc1 (centres undefined)
GI50: 521 nM | TGI: 3200 nM

Cn1cc(C2=C(c3cn(CCCCCO)c4ccccc34)C(=O)NC2=O)c2ccccc21
GI50: 3470 nM | TGI: 14100 nM

Cc1[nH]nc2ncc(C(=O)N3CCC[C@H]3c3ccc(Cl)cc3)cc12
GI50: 33300 nM | TGI: > 100000 nM

Cn1c(=O)c(Oc2ccc(F)cc2F)cc2cnc(NC3CCOCC3)nc21
GI50: > 25000 nM | TGI: > 25000 nM

CN(C)CCS(=O)(=O)Nc1cc(-c2ccc3ncc(C#N)c(Nc4ccc(F)c(Cl)c4)c3c2)cnc1Cl
GI50: 58.3 nM | TGI: 233 nM

O=S(=O)(NCCCNc1cc(-c2cn(-c3ccccc3)nc2-c2cccc(O)c2)ccn1)c1ccc(Br)cc1
GI50: 1540 nM | TGI: 5610 nM

COC(=O)[C@@H](C)C[C@H](Cc1ccccc1)NC(=O)c1csc([C@@H](C[C@H](C(C)C)N(C)C(=O)[C@@H](NC(=O)[C@H]2CCCN2C)C2CC2)OC(C)=O)n1
GI50: 0.328 nM and 2.5 nM | TGI: > 25000 nM

CNC(=O)c1cccc(C#Cc2cncnc2Nc2ccc(OCc3cccc(F)c3)c(Cl)c2)c1
GI50: 616 nM | TGI: 4050 nM

Cc1ccccc1C(C(=O)NC1CCCCC1)N(C(=O)CNc1ccc(C#N)cc1)c1cccc(F)c1 (centres undefined)
GI50: 25700 nM | TGI: > 100000 nM

CCNCCNc1cc(-c2ccc(C(F)(F)F)cc2)c(C#N)c2nc3cc(Cl)c(Cl)cc3n12
GI50: 1830 nM | TGI: 3390 nM

C=C1CC2C3C=C(C)C4=CC(=O)CC[C@]4(C)C3CC[C@]2(C)[C@@]1(OC(C)=O)C(C)=O (some centres undefined)
GI50: 3230 nM | TGI: > 100000 nM

COc1cc(/C=C/C(=O)c2c(-c3ccc(F)cc3)nc3sc(C)nn23)cc(OC)c1OC
GI50: 1920 nM | TGI: 7740 nM

O=c1oc2ccc(Br)cc2c(=O)n1-c1ccc(Cl)cc1F
GI50: 1380 nM | TGI: 5190 nM

— PubChem BioAssay (NCI)
